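Where inhibition never reached the appropriate level, the endpoint shown equals the highest concentration tested. Otherwise, values were interpolated linearly from a five-concentration, 48-hour dose response in 96-well plates. At the GI50, growth is halved.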 The source made the active and inactive calls. Cut-off read from the data, not from the text of the source: active = GI50 up to about 1.1 µM and inactive = higher.
Tests used:
Test in all cases: growth of human tumour cells (NCI), 48 h
DMS-114 = tested on: DMS-114
LOX IMVI = tested on: LOX IMVI
KM-20L2 = tested on: KM-20L2
A498 = tested on: A498
MCF7 = tested on: MCF7
SNB-78 = tested on: SNB-78
OVCAR-5 = tested on: OVCAR-5
NCI-H226 = tested on: NCI-H226
UACC-62 = tested on: UACC-62
Malme-3M = tested on: Malme-3M
SK-MEL-5 = tested on: SK-MEL-5
U-251 = tested on: U-251
SNB-75 = tested on: SNB-75
SK-MEL-28 = tested on: SK-MEL-28
HL-60 = tested on: HL-60
M19-MEL = tested on: M19-MEL
NCI-H460 = tested on: NCI-H460
MDA-N = tested on: MDA-N
A549 = tested on: A549
COLO 205 = tested on: COLO 205
KM12 = tested on: KM12
K562 = tested on: K562
HOP-92 = tested on: HOP-92
UACC-257 = tested on: UACC-257
NCI/ADR-RES = tested on: NCI/ADR-RES
SF-539 = tested on: SF-539
DU-145 = tested on: DU-145
OVCAR-3 = tested on: OVCAR-3
OVCAR-4 = tested on: OVCAR-4
HOP-18 = tested on: HOP-18
SR = tested on: SR
M14 = tested on: M14
MOLT-4 = tested on: MOLT-4
RXF 631 = tested on: RXF 631
786-0 = tested on: 786-0
RXF 393 = tested on: RXF 393
HT-29 = tested on: HT-29
SNB-19 = tested on: SNB-19
DMS-273 = tested on: DMS-273
CAKI-1 = tested on: CAKI-1
TK-10 = tested on: TK-10
SF-268 = tested on: SF-268
IGROV-1 = tested on: IGROV-1
SK-OV-3 = tested on: SK-OV-3
Hs-578T = tested on: Hs-578T
MDA-MB-435 = tested on: MDA-MB-435
CCRF-CEM = tested on: CCRF-CEM
HCT-15 = tested on: HCT-15
SK-MEL-2 = tested on: SK-MEL-2
NCI-H522 = tested on: NCI-H522
XF498 = tested on: XF498
RPMI-8226 = tested on: RPMI-8226
OVCAR-8 = tested on: OVCAR-8
SF-295 = tested on: SF-295
NCI-H23 = tested on: NCI-H23
ACHN = tested on: ACHN
PC-3 = tested on: PC-3
LXFL 529 = tested on: LXFL 529
EKVX = tested on: EKVX
UO-31 = tested on: UO-31
SW-620 = tested on: SW-620
BT-549 = tested on: BT-549
T47D = tested on: T47D
HOP-62 = tested on: HOP-62
HCT-116 = tested on: HCT-116
SN12C = tested on: SN12C
HCC 2998 = tested on: HCC 2998
DLD-1 = tested on: DLD-1
MDA-MB-231 = tested on: MDA-MB-231

`C/C(=N\N)C(CN(C)C)C(c1ccccc1)c1c(O)c2ccccc2oc1=O` (centres undefined) was tested, and the GI50 (DMS-114) was 51.9 µM (inactive), the GI50 (LOX IMVI) was > 94.4 µM (inactive) and the GI50 (KM-20L2) was > 100 µM (inactive). The GI50 (A498) was > 100 µM (inactive), the GI50 (MCF7) was > 100 µM (inactive) and the GI50 (SNB-78) was > 100 µM (inactive). The GI50 (OVCAR-5) was > 100 µM (inactive), the GI50 (NCI-H226) was > 100 µM (inactive) and the GI50 (UACC-62) was > 73.6 µM (inactive). For the same compound, the GI50 (Malme-3M) was > 94.2 µM (inactive), the GI50 (SK-MEL-5) was > 100 µM (inactive) and the GI50 (U-251) was > 87.1 µM (inactive). For the same compound, the GI50 (SNB-75) was > 42.4 µM (inactive), the GI50 (SK-MEL-28) was > 100 µM (inactive) and the GI50 (HL-60) was > 26.7 µM (inactive). The GI50 (M19-MEL) was 95.7 µM (inactive), the GI50 (NCI-H460) was > 100 µM (inactive) and the GI50 (MDA-N) was > 100 µM (inactive). For the same compound, the GI50 (A549) was > 100 µM (inactive), the GI50 (COLO 205) was > 100 µM (inactive) and the GI50 (KM12) was > 100 µM (inactive). The GI50 (K562) was > 60 µM (inactive), the GI50 (HOP-92) was 25.2 µM (inactive) and the GI50 (UACC-257) was > 100 µM (inactive). The GI50 (NCI/ADR-RES) was > 100 µM (inactive), the GI50 (SF-539) was > 100 µM (inactive) and the GI50 (DU-145) was > 100 µM (inactive). The GI50 (OVCAR-3) was > 100 µM (inactive), the GI50 (OVCAR-4) was > 65.6 µM (inactive) and the GI50 (HOP-18) was > 100 µM (inactive). The GI50 (SR) was > 67.1 µM (inactive), the GI50 (M14) was > 100 µM (inactive) and the GI50 (MOLT-4) was > 55.5 µM (inactive). The GI50 (RXF 631) was > 100 µM (inactive), the GI50 (786-0) was > 100 µM (inactive) and the GI50 (RXF 393) was > 55.6 µM (inactive). The GI50 (HT-29) was > 100 µM (inactive), the GI50 (SNB-19) was > 100 µM (inactive) and the GI50 (DMS-273) was > 100 µM (inactive). For the same compound, the GI50 (CAKI-1) was > 100 µM (inactive), the GI50 (TK-10) was > 100 µM (inactive) and the GI50 (SF-268) was > 100 µM (inactive). For the same compound, the GI50 (IGROV-1) was > 100 µM (inactive), the GI50 (SK-OV-3) was > 100 µM (inactive) and the GI50 (Hs-578T) was > 100 µM (inactive). The GI50 (MDA-MB-435) was > 100 µM (inactive), the GI50 (CCRF-CEM) was > 27 µM (inactive) and the GI50 (HCT-15) was over 100 µM. For the same compound, the GI50 (SK-MEL-2) was > 100 µM (inactive), the GI50 (NCI-H522) was > 94.4 µM (inactive) and the GI50 (XF498) was 36.4 µM (inactive). For the same compound, the GI50 (RPMI-8226) was 97.3 µM (inactive), the GI50 (OVCAR-8) was > 100 µM (inactive) and the GI50 (SF-295) was > 86.3 µM (inactive). For the same compound, the GI50 (NCI-H23) was > 100 µM (inactive), the GI50 (ACHN) was 99.5 µM (inactive) and the GI50 (PC-3) was > 100 µM (inactive). The GI50 (LXFL 529) was > 100 µM (inactive), the GI50 (EKVX) was > 70.8 µM (inactive) and the GI50 (UO-31) was > 100 µM (inactive). For the same compound, the GI50 (SW-620) was > 100 µM (inactive), the GI50 (BT-549) was > 100 µM (inactive) and the GI50 (T47D) was > 10 µM (inactive). For the same compound, the GI50 (HOP-62) was > 100 µM (inactive), the GI50 (HCT-116) was > 80 µM (inactive) and the GI50 (SN12C) was > 100 µM (inactive). The GI50 (HCC 2998) was > 100 µM (inactive), the GI50 (DLD-1) was > 100 µM (inactive) and the GI50 (MDA-MB-231) was > 100 µM (inactive).
